From US20260297542A1, “HERBICIDE RESISTANT PLANTS” (SYNGENTA CROP PROTECTION AG, priority 2023, published 2026)

Target: T1, His-TEV-AtPP01 ΔcTP (SEQ ID NO: 370) (Arabidopsis thaliana, UniProt P55826)
T1 construct: with cTPs removed; made in house; host or cells: E. coli BL21 (DE3), His GraviTrap, partially purified
T1 sequence (P55826 with tags, fused parts or gaps): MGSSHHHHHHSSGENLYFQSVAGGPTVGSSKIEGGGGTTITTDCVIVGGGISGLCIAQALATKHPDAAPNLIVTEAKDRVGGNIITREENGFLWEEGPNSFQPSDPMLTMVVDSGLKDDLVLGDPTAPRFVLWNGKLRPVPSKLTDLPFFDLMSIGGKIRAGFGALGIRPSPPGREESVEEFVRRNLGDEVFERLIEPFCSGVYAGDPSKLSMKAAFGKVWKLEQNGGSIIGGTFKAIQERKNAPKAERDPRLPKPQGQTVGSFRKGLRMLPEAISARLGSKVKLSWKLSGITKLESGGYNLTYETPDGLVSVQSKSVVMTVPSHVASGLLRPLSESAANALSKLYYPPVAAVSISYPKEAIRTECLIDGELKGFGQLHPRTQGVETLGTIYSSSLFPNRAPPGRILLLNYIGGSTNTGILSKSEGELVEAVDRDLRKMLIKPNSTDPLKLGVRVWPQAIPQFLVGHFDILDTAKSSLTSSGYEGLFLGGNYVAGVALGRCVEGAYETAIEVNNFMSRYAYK
Test: activity rate of PPO variant in in vitro assay
Type: biochemical
Details: role: substrate; 1 uM protoporphyrinogen IX; no inhibitor
Excerpt: A pET24 plasmid containing a DNA sequence encoding variants of AtPPO1 derived from Arabidopsis thaliana with cTPs removed and both a 6×His tag and TEV protease cleavage tag added at the N-terminus, codon-optimised for expression in E. coli, and under control of a T7 promoter, was synthesised by Twist Bioscience. The following variants were synthesised: WT AtPPO1 (SEQ ID NO: 370), AtPPO1 L479M (SEQ ID NO: 371), AtPPO1 L479N (SEQ ID NO: 372), AtPPO1 S305L Y426V (SEQ ID NO: 374) and AtPPO1 S305L Y426V L479M (SEQ ID NO: 373). This plasmid was expressed in E. coli BL21 (DE3) with 50 μg/mL kanamycin selection. 10 mL of overnight cultures grown at 37° C. were used to inoculate 1 L AIM (AIM-Terrific Broth Base including Trace elements, Formedium) in 2 L shake flasks. Cultures were grown at 37° C., 200 rpm for 3 hours and then overnight at 26° C. Cells were harvested centrifugation. 5-15 g of cell pellet was lysed in and resuspended in ratio of 1:1.5 in lysis buffer (20 mM Tris pH8, 500 mM sodium chloride, 10% glycerol, 1× complete Protease EDTA-free Inhibitor Tablet (Roche), 10 mM imidazole). The resuspension was sonicated at 75% using 10 cycles of 30 seconds, 40 seconds off. After sonication Triton X-100 was added to the lysates at a final concentration of 0.5%. The lysates were centrifuged at 20,000 rpm for 25 min at 4° C. Cleared lysates were loaded on His GraviTrap (Cytiva) columns, washed with 20 mL of lysis buffer and eluted in elution buffer (20 mM Tris pH8, 500 mM sodium chloride, 10% glycerol, 200 mM imidazole, 0.03% (v/v) Triton X-100). The eluate was desalted on a PD10 column and 2.5-3.2 mL was collected. Protein concentration was measured and calculated using the absorbance at 280 nm. Extracts were diluted 1 in 4 and 10 uL was analysed by SDS PAGE.
Partially purified Protoporphyrinogen Oxidase enzymes were assayed for activity using fluorescence adapted from the method of Shepherd & Dailey (Anal Biochem. 2005 344(1) 115-121). The assay was performed in black 384 well plates with a clear bottom and the total volume of the reaction mixture was 91 ul. The final assay mixture contained 100 mM K2HPO4 pH7.2, 1 mM Na2EDTA, 5 mM DTT, 20% glycerol (v/v), 0.05% Tween 20 (v/v), 1.1% DMSO (v/v), 1 uM protoporphyrinogen IX and 1.5 nM enzyme. Compounds were dissolved in DMSO at 1 mM and a 4-fold serial dilution carried out to give 8 rates. 1 ul was added to the assay mixture. This gave final compound concentrations of 11, 2.7, 0.69, 0.17, 0.04, 0.01, 0.002, 0.0007 uM. Enzyme and inhibitor were preincubated for 5 minutes prior to starting the reaction with the addition of the substrate. […] IC50s were calculated using GraphPad Prism 7.05 nonlinear regression (Table 6). Each compound was tested in duplicate.

C=Cc1c2[nH]c(c1C)Cc1[nH]c(c(CCC(=O)O)c1C)Cc1[nH]c(c(C)c1CCC(=O)O)Cc1[nH]c(c(C)c1C=C)C2 [protoporphyrinogen IX]
Rate: 5.1 rfu second^−1 pmole^−1
